US5545648A (Canadian Spinal Research Organization, priority 1992, dated 1996)
Where “and” joins values, the source holds several entries; their conditions need not be identical. Equal entries are not always repeated. Entries after “also recorded” stand apart in the source; their conditions may differ.

Legend:
[1] = tested on: multiple sclerosis patients; details: cited from earlier work
[2] = tested on: spinal cord injured patients; assay: Electrodiagnostic testing (nerve conduction, electromyography, somatosensory evoked potentials); type: in vivo, human
Method: (§1) The schedule of each trial was the same. The patient was admitted to the hospital on the preceding day and in the early morning was assessed by neurological examination and electro-diagnostic evaluation. Administration of the drug or placebo, through an in dwelling venous catheter, was then begun and continued for approximately 2 hours, arranged in 20 minute sequences based on delivery of 1 ml aliquots of the 4-AP solution. The patient was monitored electroencephalographically at frequent intervals throughout the procedure. Samples of blood and urine were obtained from an additional intravenous catheter and from the urinary catheter respectively. Blood was obtained at intervals up to 5 hours from the beginning of drug delivery and urine obtained pre-infusion and at 1 and 2 hours after the beginning of infusion. The patients were re-evaluated by complete neurological examination, by the same examiner, at the end of the period of drug delivery. They were then re-examined with the electrodiagnostic tests. A more limited neurological examination was sometimes performed during drug delivery in an attempt to identify any early changes, without producing significant testing fatigue. The electrodiagnostic tests were repeated at 2 hours after the cessation of drug delivery. Patients showing apparent effects of the treatment remained in the hospital overnight and were examined on the following day. Subsequent contact with the patients was by telephone interview or as a result of their correspondence regarding longer term changes associated with their treatment.
Immediately before and after the infusion of 4-AP or placebo, and at approximately 2 hours after the end of the infusion, patients were evaluated with a set of standard electro-diagnostic tests: conduction in peroneal, posterior tibial and sural nerves, electromyography of tibial is anterior and gastroc-nemius muscles during rest and maximal voluntary contraction, and somatosensory evoked potentials. Patients were also monitored with electroencephalography, at intervals during the infusion, to look for evidence of potential for seizure activity.

[3] = tested on: spinal cord injured patients; assay: Vibration sensation score; type: in vivo, human
Method: as §1
Patients were evaluated using a modified form of the American Spinal Injury Association (ASIA) Standards for Neurological Classification of Spinal Injury Patients (revised 1990). The modifications were mainly required to simplify the examination so that it could be performed on patients lying on a bed with intravenous catheters, electrodes and urethral catheters restricting the range of motion. Examinations performed after the day of drug delivery were made on an outpatient basis with the subjects partially clothed, and evaluation of dermatomes was sometimes incomplete. Each part of the examination was videotaped for later review and was repeated on the two sides of the body.
Sensory abilities were graded on an analogous 0-4 point scale:
The sensory modalities tested were light touch, pinprick, vibration, joint position, and temperature. The dermatomes tested for touch and pinprick were: C5,6,7,8, T1,T7-9,L1,2,3,4,5, and S1, giving a total possible score of 96 for each modality. Vibration sensation was usually tested bilaterally, at the shoulder, elbow, knee and ankle. Temperature sensation was tested, with the subject's eyes closed, by blowing cool air from a distance or breathing warm air in close proximity on the dorsal surface of the hands and feet. Joint position sense was examined with the subject's eyes closed, by imposed flexion and extension movements of the thumb and great toe. The total possible score for the full sensory examination was 256 points.
Though the examiners assigned half point scores in cases where they felt that subjects fell between score categories, any half point differences between pre- and post-infusion scores have been ignored in this analysis. Also omitted from this tabulation are the scores for vibration sensation, which are shown separately in Table 3. […]

[4] = tested on: potassium channels; details: cited from earlier work
[5] = tested on: spinal cord injury patients; details: cited from earlier work
[6] = tested on: spinal cord injured patients; assay: Effects reported by the subjects and overall clinical benefit (function, chronic pain, spasticity); type: in vivo, human
Method: The experimental design was a double-blind, placebo-controlled, crossover study in which each patient was administered the drug and a vehicle control on different occasions, separated by two weeks. The order of delivery was randomized.
as §1
Two of the patients who reported more prolonged effects of the drug were returned to the hospital after 4 months for a second, unblinded trial, which included neurological examinations daily for 3-4 days. Plasma samples were also obtained daily from these two patients, for measurement of 4-AP.

[7] = tested on: synaptic transmission in the spinal cord; details: relatively high concentrations; cited from earlier work
[8] = 2 hours after infusion of 4-AP, total of subjects
[9] = 2 hours after infusion of 4-AP, total possible 32, one line per subject: b182 RB, SC, HT, LJ, EB, b187 GCh, AW, b189 GCu

Nc1ccncc1 [4-AP, 4-aminopyridine]
motor strength and sensory deficits [1]: selective increases in motor strength and recovery of sensory deficits | electromyographic data ([2]; after 4-AP): consistent with observed changes in strength of muscle contraction | peripheral nerve conduction ([2]; after 4-AP): No consistent effects on peripheral nerve conduction | somatosensory evoked potentials (posterior tibial nerve stimulation), no detectable response ([2]; six subjects, before or after injection): no detectable somatosensory evoked potentials | form or amplitude of somatosensory evoked potentials ([2]; subjects, following 4-AP): did not change significantly in form or amplitude | change in total score for vibration sensation, +ve, TOTAL [3, 8]: +1 | change in total score for vibration sensation, -ve, TOTAL [3, 8]: -12 | change in total score for vibration sensation, +ve [3, 9]: 0 and +1 | change in total score for vibration sensation, -ve [3, 9]: 0 and -7 and -4 and -2 | vibration sensation score (in words) ([3]; after 4-AP infusion, three subjects): scores in three subjects decreased substantially | spontaneous activity of injured nerve fibres on potassium channel blockade [4]: tends to produce or enhance such spontaneous activity and to elicit "burst" (multiple action potential) responses | serious side effects ([5]; human, in vivo): lack of serious side effects | therapeutic benefit ([5]; mostly electrophysiological level): modest therapeutic benefit | reproduction of effects at second administration ([6]; 4 months later, two subjects GCh, EB): effects and side effects similar to those seen in the earlier, blinded administration; also recorded: the effects were reproduced by a second administration of the drug 4 months later in two of the subjects | return to usual state ([6]; after infusion, subject gamma): ≤ 3 days | increase in strength of arms and right leg, reported by subject ([6]; day after infusion, subject beta): about 25% | delayed or prolonged effects reported ([6]; five patients with less complete injuries): all reported some delayed or prolonged effects | duration of self-sustaining changes in the nervous system ([6]; human, in vivo): 1 to 2 days | patients desiring to receive the drug regularly ([6]; human, in vivo): four of the patients expressed a strong desire to be able to receive the drug on a regular basis | reduced usage of analgesic ([6]; human, in vivo): greatly reduced usage of analgesic in one case | reduced usage of antispastic medication ([6]; human, in vivo): antispastic medication in at least two cases | relation between side-effects and apparent benefit ([6]; human, in vivo): no relation between the appearance of side-effects and apparent benefit | motor and/or sensory effects in incomplete injuries ([6]; remaining 5 subjects): showed motor and/or sensory effects | duration of markedly reduced spasticity ([6]; second infusion, subject gamma): more than 24 hours | duration of improved function ([6]; some subjects): over 48 hours | reduction of chronic pain and spasticity, motor control and sensory ability (overall) ([6]; spinal cord injured individuals): relief of chronic pain and spasticity; also recorded: can increase motor control and sensory ability and reduce chronic pain and spasticity; also recorded: long lasting reductions in spasticity and in chronic pain and dysesthesias; also recorded: shown to reduce chronic pain and spasticity in certain individuals | proportion of patients with incomplete injury showing benefit ([6]; spinal cord injury patients): 5 of 6 and 5 of the 6 | duration of reduction in spasticity ([6]; subject four): three days | dysesthesia (persistent itch in one shoulder) ([6]; subject four): no change in this condition | return to normal requirement for Baclofen ([6]; subject four): only returned to their normal requirement for Baclofen on the fourth day | finger movements back and forth, left hand ([6]; subject four, normally a few flickers): 20-30 times | duration of absence of pain in the legs ([6]; subject gamma): at least 2 days | sensation, reported by subject ([6]; subject named in the block (LJ; EB; GCh; AW)): more sensation below the level of injury; also recorded: remarkable return of sensation below the level of the injury to virtually normal sensation on both sides; also recorded: marked improvement in sensation below the lesion; also recorded: increased sensation; also recorded: more sensation and strength in their legs | chronic pain / paresthesia, reported by subject ([6]; subject named in the block (LJ; GCh; GCu)): The usual burning pain they experienced in their buttocks was absent, though there was still some burning in their lower limbs, which had increased; also recorded: the pain in the legs was absent, though it remained to some extent in their feet; also recorded: reduction of chronic pain; also recorded: significant reduction in the usual tingling paresthesia in their hands | movement / motor power, reported by subject ([6]; subject named in the block (b79 LJ; b81 EB; b83, b84 GCh; b86 AW; b88 GCu)): slightly greater movement in one thumb and index finger; also recorded: increased motor power in the left arm and leg; also recorded: greater endurance; also recorded: motor endurance below the level of the injury; also recorded: improved strength and sensation in their legs; also recorded: their arms and right leg had been stronger | spasticity ([6]; subject named in the block (b81 EB; b83, b84 GCh)): marked reduction in spasticity; also recorded: decrease in spasticity | breathing ([6]; subject two): marked improvement in breathing | duration of motor and sensory effects incl. improved breathing ([6]; subject two): about 2 days | infused dose at which lower limb strength increased ([6]; subject two): 8 mg | relief of chronic, painful dysesthesias below the lesion ([6]; subjects, predominantly proximal in the limb): considerable relief | beneficial effects in neurologically complete lesions ([6]; two patients): Two patients with neurologically "complete" spinal cord lesions showed no beneficial effects | synaptic transmission in the spinal cord [7]: enhance synaptic transmission in the spinal cord
